Experimental data published in ChEMBL document CHEMBL1135038, “Initial structure-activity relationship studies of a novel series of pyrrolo[1,2-a]pyrimid-7-ones as GnRH receptor antagonists” (Bioorg Med Chem Lett, 2002).

Legend:
[1] = biological target: T1, Gonadotropin-releasing hormone receptor (Homo sapiens, UniProt P30968); assay: Inhibitory activity against human GnRH receptor using des-Gly10[125I]Tyr5, D-Leu, NMeLeu, Pro-NEt]GnRH radioligand
T1 sequence (P30968 whole entry): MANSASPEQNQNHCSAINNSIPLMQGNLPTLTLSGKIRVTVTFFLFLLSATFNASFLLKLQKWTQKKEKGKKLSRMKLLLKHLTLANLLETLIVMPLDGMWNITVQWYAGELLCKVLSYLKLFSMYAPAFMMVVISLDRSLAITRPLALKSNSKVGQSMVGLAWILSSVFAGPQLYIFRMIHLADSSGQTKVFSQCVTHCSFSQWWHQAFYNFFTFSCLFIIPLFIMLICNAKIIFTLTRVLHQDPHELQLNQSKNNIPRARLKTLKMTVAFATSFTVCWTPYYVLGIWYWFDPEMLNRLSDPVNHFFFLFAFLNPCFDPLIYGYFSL

[2] = biological target: T2, Gonadotropin-releasing hormone receptor (Rattus norvegicus, UniProt P30969); assay: Binding affinity against gonadotropin-releasing hormone receptor of rat
T2 sequence (P30969 whole entry): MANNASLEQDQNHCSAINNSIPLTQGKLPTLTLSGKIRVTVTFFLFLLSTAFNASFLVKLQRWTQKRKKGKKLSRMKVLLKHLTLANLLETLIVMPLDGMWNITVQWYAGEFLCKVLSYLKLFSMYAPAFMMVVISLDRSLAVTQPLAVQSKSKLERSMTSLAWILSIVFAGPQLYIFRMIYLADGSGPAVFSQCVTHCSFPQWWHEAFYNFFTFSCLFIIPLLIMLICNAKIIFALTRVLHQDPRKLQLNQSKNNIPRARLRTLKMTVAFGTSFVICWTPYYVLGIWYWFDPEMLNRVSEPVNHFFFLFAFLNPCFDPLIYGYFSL

[3] = biological target: T1, Gonadotropin-releasing hormone receptor; assay: Binding affinity against human GnRH receptor expressed in HEK293 cells using des-Gly10[125I]Tyr5, D-Leu, NMeLeu, Pro-NEt GnRH as radioligand.; assay type: cell-based

| SMILES | Ki [3] | also measured |
| --- | --- | --- |
| Cc1cc(C)cc(-c2[nH]c3ccccc3c2CCNCCCCc2ccc(NS(C)(=O)=O)cc2)c1 | – | IC50 [1]: 7 nM; IC50 [2]: 170 nM |
| CCOC(=O)c1cn(Cc2cc(F)ccc2F)c2c(C#N)c(-c3ccc(OCC(C)C)cc3)c(CN(C)CCc3ccccn3)n2c1=O | 1200 nM | – |
| COc1ccc(-c2c(C#N)c3n(Cc4ccccc4F)cc(C(=O)OC(C4CC4)C4CC4)c(=O)n3c2CN(C)CCc2ccccn2)cc1 | 2500 nM | – |
| CCOC(=O)c1cn(Cc2ccc(F)cc2F)c2c(C#N)c(-c3ccc(OCC(C)C)cc3)c(CN(C)CCc3ccncc3)n2c1=O | > 50000 nM | – |
| CCOC(=O)c1cn(Cc2c(F)cccc2F)c2c(C#N)c(-c3ccc(OC)cc3)c(CN(C)CCc3ccccn3)n2c1=O | 2000 nM | – |
| COc1ccc(-c2c(C#N)c3n(Cc4ccccc4F)cc(C(=O)OC(C)C)c(=O)n3c2CN(C)CCc2ccccn2)cc1 | 400 nM | – |
| CCOC(=O)c1cn(Cc2ccc(F)cc2F)c2c(C#N)c(-c3ccc(OCC(C)C)cc3)c(CN(C)CCc3cccnc3)n2c1=O | 28000 nM | – |
| CCOC(=O)c1cn(Cc2ccc(F)cc2F)c2c(C#N)c(-c3ccc(OC)cc3)c(CN(C)CCc3ccccn3)n2c1=O | 3700 nM | – |
| CN(CCc1ccccn1)Cc1c(-c2ccc(OC3CCCC3)cc2)c(C#N)c2n(Cc3ccccc3F)cc(C(=O)OC3CCCC3)c(=O)n12 | 33 nM | Ki [2]: 8900 nM |
| CCOC(=O)c1cn(Cc2ccccc2)c2c(C#N)c(-c3ccc(OC)cc3)c(CN(C)Cc3ccccc3)n2c1=O | 42000 nM | – |
| CCOC(=O)c1cn(Cc2ccccc2)c2c(C#N)c(-c3ccc(OC)cc3)c(CN(C)CCc3ccccn3)n2c1=O | 2600 nM | – |
| CCOC(=O)c1cn(Cc2ccccc2Cl)c2c(C#N)c(-c3ccc(OC)cc3)c(CN(C)CCc3ccccn3)n2c1=O | 8500 nM | – |
| CCOC(=O)c1cn(Cc2ccccc2F)c2c(C#N)c(-c3ccc(OCC(C)C)cc3)c(CN(C)CCc3ccccn3)n2c1=O | 100 nM | – |
| CCOC(=O)c1cn(Cc2ccc(F)cc2F)c2c(C#N)c(-c3ccc(OCC(C)C)cc3)c(CN(C)CCc3ccccn3)n2c1=O | 400 nM | – |
| CCOC(=O)c1cn(CC2CC2)c2c(C#N)c(-c3ccc(OC)cc3)c(CN(C)CCc3ccccn3)n2c1=O | > 50000 nM | – |
| CCOC(=O)c1cn(Cc2c(F)cccc2F)c2c(C#N)c(-c3ccc(OCC(C)C)cc3)c(CN(C)CCc3ccccn3)n2c1=O | 800 nM | – |

| SMILES | Ki [3] | also measured |
| --- | --- | --- |
| CCOC(=O)c1cn(Cc2cc(F)ccc2F)c2c(C#N)c(-c3ccc(OC)cc3)c(CN(C)CCc3ccccn3)n2c1=O | 6000 nM | – |
| CCOC(=O)c1cn(Cc2ccccc2F)c2c(C#N)c(-c3ccc(OC)cc3)c(CN(C)Cc3ccccc3)n2c1=O | 1800 nM | – |
| CCOC(=O)c1cn(Cc2ccccc2C#N)c2c(C#N)c(-c3ccc(OC)cc3)c(CN(C)CCc3ccccn3)n2c1=O | 4900 nM | – |
| CCOC(=O)c1cn(Cc2ccc(F)cc2F)c2c(C#N)c(-c3ccc(OCC(C)C)cc3)c(CN(C)CCc3ccccc3)n2c1=O | > 50000 nM | – |
| COc1ccc(-c2c(C#N)c3n(Cc4ccccc4F)cc(C(=O)OC4CCCC4)c(=O)n3c2CN(C)CCc2ccccn2)cc1 | 260 nM | – |
| Cc1cc(-c2c(O)nc3ccc(C(=O)Nc4ccncn4)cc3c2OCC[C@@H]2CCN2)cc(C)c1C | – | IC50 [1]: 0.4 nM; IC50 [2]: 4 nM |
| CCC(CC)OC(=O)c1cn(Cc2ccccc2F)c2c(C#N)c(-c3ccc(OC4CCCC4)cc3)c(CN(C)CCc3ccccn3)n2c1=O | 31 nM | Ki [2]: 7600 nM |
| CCOC(=O)c1cn(Cc2ccccc2)c2c(C#N)c(-c3ccc(OC)cc3)c(CN(C)C)n2c1=O | > 50000 nM | – |
| COc1ccc(-c2c(C#N)c3n(Cc4ccccc4F)cc(C(=O)OC4CCOC4)c(=O)n3c2CN(C)CCc2ccccn2)cc1 (configuration not stated) | 2100 nM | – |
| CCOC(=O)c1cn(Cc2ccccc2OC)c2c(C#N)c(-c3ccc(OC)cc3)c(CN(C)CCc3ccccn3)n2c1=O | 6600 nM | – |
| CCC(CC)OC(=O)c1cn(Cc2ccccc2F)c2c(C#N)c(-c3ccc(OC)cc3)c(CN(C)CCc3ccccn3)n2c1=O | 180 nM | Ki [2]: 7700 nM |
| CCOC(=O)c1cn(Cc2ccccc2OC)c2c(C#N)c(-c3ccc(OCC(C)C)cc3)c(CN(C)CCc3ccccn3)n2c1=O | 2200 nM | – |
| CCOC(=O)c1cn(Cc2ccccc2F)c2c(C#N)c(-c3ccc(OC)cc3)c(CN(C)CCc3ccccn3)n2c1=O | 500 nM | – |
| CCOC(=O)c1cn(Cc2cccc(F)c2F)c2c(C#N)c(-c3ccc(OC)cc3)c(CN(C)CCc3ccccn3)n2c1=O | 2400 nM | – |
| CCC(CC)OC(=O)c1cn(Cc2ccccc2F)c2c(C#N)c(-c3ccc(OCC(C)C)cc3)c(CN(C)CCc3ccccn3)n2c1=O | 25 nM | Ki [2]: 7300 nM |
